Source: patent US20020051982A1, “Novel BLR molecules affecting antibiotic susceptibility” (priority 2000, published 2002)
In brackets after ≈: the same amount, converted by molar mass. Where two headings read alike, the source gives them in different places.

Key:
Assay type in all cases: cell-based, E. coli
S26 blr^+ = assay: MIC for ampicillin, non-suppressor S26 host, blr^+; details: plasmid None;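 note: MIC in µg per mL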
RW583 = assay: Antibiotic susceptibility of the blr::TnphoA insertion mutant compared with the parent; details: for effect of the insertion on susceptibility: transconjugant RW583 (blr::TnphoA) versus parental strain
Text: Donor E. coli K 12 strain S17-1 λpir (Tp^rSm^rrecA, thi, pro, hsdR^−M^+RP4;2-Tc:Mu:KmTn7,λpir; George and Levy. 1983. J Bacteriol 1983 Aug; 155 (2): 531-48) containing a conjugatable transposon-delivery plasmid pUT/Km (able to replicate only in the donor) which bore mini-Tn5phoA (de Lorenzo, V. & Timmis, K. N. Meth. Enzymol. 235, 386-404 (1994)) was mated with recipient ASS111rif and plated on kanamycin/rifamycin. Transconjugant RW583 had both PhoA activity and a 2-4 fold enhanced susceptibility to a wide spectrum of antibiotics […] including cephalosporins and imipenem (Table 1) as well as cycloserine and bacitracin, while susceptibility to tetracycline, chloramphenicol, nalidixic acid, norfloxacin, gentamicin, fosfomycin or valinomycin was not affected. The insertion was transduced (Provence, D. L. & Curtiss, R. I. in Methods for General and Molecular Bacteriology (ed. Gerhardt, P., Murry, R. G. E., Wood, W. A. & Kreig, N. R.) 317-347 (American Society for Microbiology, Washington D.C. 1994)) by bacteriophage P1 into other E. coli K12 strains, where it had the same effect on susceptibility (Table 1).
The cloned 358 base pairs region restored the wild type phenotype to the hypersusceptible strain bearing blr::TnphoA, regardless of orientation with respect to the lac promoter (Table 1, pRW23C vs pRW23D). The HindIII/PstI fragment of pACYC 184 (carrying the tet promoter and part of the tet gent) was replaced by the HindIII/PstI fragment from pRW23D. […] Therefore the 358 base pairs region appeared to contain all the information needed for complementation.

S26su^+ blr::TnphoA = assay: MIC for ampicillin, leuX amber suppressor host S26su^+, blr::TnphoA;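 note: MIC in µg per mL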
AW1045 blr::TnphoA = assay: E-test susceptibility on LB agar, strain AW1045 blr::TnphoA; design: unit not given here
[1] = system: ASS111rif blr::TnphoA (=RW583); assay: E-test susceptibility on LB agar, strain RW583 without or with plasmids; design: unit not given here
WY100 = assay: E-test susceptibility on LB agar, strain WY100; design: unit not given here
[2] = system: RW583 (ASS111rifblr::TnphoA); assay: MIC for ampicillin, complementation in RW583; details: Escherichia coli
ASS11rif (blr^+) = assay: MIC for ampicillin, complementation test, wild type host; details: Escherichia coli
S26su^+ blr^+ = assay: MIC for ampicillin, leuX amber suppressor host S26su^+, blr^+; details: plasmid None;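 note: MIC in µg per mL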
S26 blr::TnphoA = assay: MIC for ampicillin, non-suppressor S26 host, blr::TnphoA;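 note: MIC in µg per mL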
WY100 blr::TnphoA = assay: E-test susceptibility on LB agar, strain WY100 blr::TnphoA; design: unit not given here
AW1045 = assay: E-test susceptibility on LB agar, strain AW1045; design: unit not given here
[3] = system: blr::TnphoA insertion mutant; assay: Decline in optical density of growing cultures; details: insertion mutant versus wild type
[4] = Blr::TnphoA, pL24tag1 (amber blr)
[5] = Blr::TnphoA, pL39tag3 (amber L39 blr)
[6] = blr::TnphoA, pRW23C (wild type blr)
[7] = RW58s + pRW23D (blr^+, 358 base pairs)
[8] = RW583 + pRW23A (blr^+, 680 base pairs)
[9] = RW583 + pRW23C (blr^+, 358 base pairs)
[10] = strain ASS111rif blr::TnphoA (=RW583), no plasmid

Molecule: CC1(C)S[C@@H]2[C@H](NC(=O)[C@H](N)c3ccccc3)C(=O)N2[C@H]1C(=O)O [Ampicillin]
- MIC for ampicillin (S26 blr^+): 3.3 µg·mL
- restoration of resistance by plasmid (RW583; blr::TnphoA strain with pRWA7 (no vector-derived promoter for blr)): completely restored resistance
- MIC for ampicillin (S26su^+ blr::TnphoA; [4]): 2.1 µg·mL
- MIC for ampicillin (S26su^+ blr::TnphoA; [5]): 0.2 µg·mL
- MIC for ampicillin (S26su^+ blr::TnphoA; [6]): 3.0 µg·mL
- MIC for ampicillin (S26su^+ blr::TnphoA; blr::TnphoA, pUC19-Sp^R (none)): 1.1 µg·mL
- MIC for ampicillin (S26su^+ blr::TnphoA; blr::TnphoA, plasmid None): 1.0 µg·mL
- susceptibility (E-test strip) (AW1045 blr::TnphoA): 0.75
- susceptibility (E-test strip) [1, 7]: 2
- susceptibility (E-test strip) ([1]; RW583 + pACYC184 (vector)): 0.5
- susceptibility (E-test strip) [1, 8]: 3
- susceptibility (E-test strip) [1, 9]: 2
- susceptibility (E-test strip) ([1]; RW583 + pUC19Sp^R (vector)): 0.25
- susceptibility (E-test strip) [1, 10]: 0.5
- susceptibility (E-test strip) (WY100): 3
- MIC ([2]; host RW583, plasmid None): 0.13 µg/mL (≈ 0.372 µM)
- MIC ([2]; host RW583, plasmid PQ13tag1 (amber Q13 blr)): 1.1 µg/mL (≈ 3.15 µM)
- MIC ([2]; host RW583, plasmid PV20tag1 (amber V20 blr)): 1.2 µg/mL (≈ 3.43 µM)
- MIC ([2]; host RW583, plasmid pL24tag1 (amber L24 blr)): 0.13 µg/mL (≈ 0.372 µM)
- MIC ([2]; host RW583, plasmid pRW23C (wild type blr)): 1.1 µg/mL (≈ 3.15 µM)
- MIC ([2]; host RW583, plasmid pUC19-Sp^R (none)): 0.09 µg/mL (≈ 0.258 µM)
- MIC (ASS11rif (blr^+); host ASS11rif blr^+, plasmid pRW23C (wild type blr), read-out: MIC for ampicillin): 1 µg/mL (≈ 2.86 µM)
- MIC (ASS11rif (blr^+); read-out: MIC for ampicillin, host ASS11rif blr^+, plasmid None): 1.1 µg/mL (≈ 3.15 µM)
- MIC for ampicillin (S26su^+ blr^+): 3.5 µg·mL
- MIC for ampicillin (S26 blr::TnphoA; [4]): 0.9 µg·mL
- MIC for ampicillin (S26 blr::TnphoA; [5]): 0.2 µg·mL
- MIC for ampicillin (S26 blr::TnphoA; [6]): 2.8 µg·mL
- MIC for ampicillin (S26 blr::TnphoA; blr::TnphoA, pUC19-Sp^R (none)): 0.5 µg·mL
- MIC for ampicillin (S26 blr::TnphoA; blr::TnphoA, plasmid None): 0.5 µg·mL
- susceptibility (E-test strip) (WY100 blr::TnphoA): 0.75
- susceptibility (E-test strip) (AW1045): 3
- drug concentration required for decline in optical density of growing cultures [3]: lower drug concentration

Molecule: CO/N=C(\C(=O)N[C@@H]1C(=O)N2C(C(=O)[O-])=C(C[N+]3(C)CCCC3)CS[C@H]12)c1csc(N)n1 [Cefepime]
- susceptibility (E-test strip) (AW1045 blr::TnphoA): <0.016
- susceptibility (E-test strip) [1, 7]: 0.023
- susceptibility (E-test strip) ([1]; RW583 + pACYC184 (vector)): <0.016
- susceptibility (E-test strip) [1, 8]: 0.032
- susceptibility (E-test strip) [1, 9]: 0.023
- susceptibility (E-test strip) ([1]; RW583 + pUC19Sp^R (vector)): <0.016
- susceptibility (E-test strip) [1, 10]: <0.016
- susceptibility (E-test strip) (WY100): 0.047
- susceptibility (E-test strip) (WY100 blr::TnphoA): <0.016
- susceptibility (E-test strip) (AW1045): 0.023

Molecule: CO[C@@]1(NC(=O)Cc2cccs2)C(=O)N2C(C(=O)O)=C(COC(N)=O)CS[C@@H]21 [Cefoxitin]
- susceptibility (E-test strip) (AW1045 blr::TnphoA): 1.5
- susceptibility (E-test strip) [1, 7]: 1.5
- susceptibility (E-test strip) ([1]; RW583 + pACYC184 (vector)): 0.75
- susceptibility (E-test strip) [1, 8]: 2
- susceptibility (E-test strip) [1, 9]: 1.5
- susceptibility (E-test strip) ([1]; RW583 + pUC19Sp^R (vector)): 0.75
- susceptibility (E-test strip) [1, 10]: 1.0
- susceptibility (E-test strip) (WY100): 3
- susceptibility (E-test strip) (WY100 blr::TnphoA): 1.5
- susceptibility (E-test strip) (AW1045): 3

Molecule: CO/N=C(\C(=O)N[C@@H]1C(=O)N2C(C(=O)O)=C(CSc3nc(=O)c(=O)[nH]n3C)CS[C@H]12)c1csc(N)n1 [Ceftriaxone]
- susceptibility (E-test strip) (AW1045 blr::TnphoA): <0.016
- susceptibility (E-test strip) [1, 7]: 0.016
- susceptibility (E-test strip) ([1]; RW583 + pACYC184 (vector)): <0.016
- susceptibility (E-test strip) [1, 8]: 0.023
- susceptibility (E-test strip) [1, 9]: 0.016
- susceptibility (E-test strip) ([1]; RW583 + pUC19Sp^R (vector)): <0.016
- susceptibility (E-test strip) [1, 10]: <0.016
- susceptibility (E-test strip) (WY100): 0.125
- susceptibility (E-test strip) (WY100 blr::TnphoA): 0.32
- susceptibility (E-test strip) (AW1045): 0.032

Molecule: C[C@@H](O)[C@H]1C(=O)N2C(C(=O)O)=C(SCCN=CN)C[C@H]12 [Imipene, imipenem]
- susceptibility (E-test strip) (AW1045 blr::TnphoA): 0.125
- susceptibility (E-test strip) [1, 7]: 0.25
- susceptibility (E-test strip) ([1]; RW583 + pACYC184 (vector)): 0.19
- susceptibility (E-test strip) [1, 8]: 0.38
- susceptibility (E-test strip) [1, 9]: 0.19
- susceptibility (E-test strip) ([1]; RW583 + pUC19Sp^R (vector)): 0.125
- susceptibility (E-test strip) [1, 10]: 0.19
- susceptibility (E-test strip) (WY100): 0.25
- susceptibility (E-test strip) (WY100 blr::TnphoA): 0.125
- susceptibility (E-test strip) (AW1045): 0.38

Molecule: CCN1CCN(C(=O)N[C@@H](C(=O)N[C@@H]2C(=O)N3[C@@H]2SC(C)(C)[C@@H]3C(=O)O)c2ccccc2)C(=O)C1=O [Pipericillin]
- susceptibility (E-test strip) (AW1045 blr::TnphoA): 0.25
- susceptibility (E-test strip) [1, 7]: 1.0
- susceptibility (E-test strip) ([1]; RW583 + pACYC184 (vector)): 0.25
- susceptibility (E-test strip) [1, 8]: 1.5
- susceptibility (E-test strip) [1, 9]: 1.0
- susceptibility (E-test strip) ([1]; RW583 + pUC19Sp^R (vector)): 1.25
- susceptibility (E-test strip) [1, 10]: 0.25
- susceptibility (E-test strip) (WY100): 1.5
- susceptibility (E-test strip) (WY100 blr::TnphoA): 0.75
- susceptibility (E-test strip) (AW1045): 1.0

Molecule: O=C(N[C@H](CO)[C@H](O)c1ccc([N+](=O)[O-])cc1)C(Cl)Cl [chloramphenicol]
- effect of the insertion on susceptibility (RW583): not affected

Molecule: C[C@@H]1O[C@@H]1P(=O)(O)O [fosfomycin]
- effect of the insertion on susceptibility (RW583): not affected

Molecule: CCn1cc(C(=O)O)c(=O)c2ccc(C)nc21 [nalidixic acid]
- effect of the insertion on susceptibility (RW583): not affected

Molecule: CCn1cc(C(=O)O)c(=O)c2cc(F)c(N3CCNCC3)cc21 [norfloxacin]
- effect of the insertion on susceptibility (RW583): not affected

Molecule: CC(C)[C@@H]1NC(=O)[C@H](C)OC(=O)[C@@H](C(C)C)NC(=O)[C@@H](C(C)C)OC(=O)[C@H](C(C)C)NC(=O)[C@H](C)OC(=O)[C@@H](C(C)C)NC(=O)[C@@H](C(C)C)OC(=O)[C@H](C(C)C)NC(=O)[C@H](C)OC(=O)[C@@H](C(C)C)NC(=O)[C@@H](C(C)C)OC1=O [valinomycin]
- effect of the insertion on susceptibility (RW583): not affected

Molecule: gentamicin
- effect of the insertion on susceptibility (RW583): not affected
